The values that follow are results of earlier work, collected in patent publication US20220130517A1, “PS[…] VARIOUS MENTAL HEALTH DISORDERS” (Ketamine SLC, priority 2020, published 2022).

Molecules are shown by their SMILES.

The data set relates to mental health disorder. As to conditions: IV drip over 40 minutes, 0.5 mg/kg per session, six sessions over twelve days; some patients.

Regarding `CNC1(c2ccccc2Cl)CCCCC1=O` (stereo not shown) [ketamine], the “relief from the symptoms of mental health disorder” value is “some patients experience relief from the symptoms of their mental health disorder for a period of time including weeks and/or months”.
